# Test results published in PubChem BioAssay (NCI).
#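 48-hour exposure; five concentrations; linearly interpolated endpoints. TGI marks complete inhibition of growth.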
# How the values were obtained:
# Assay in all cases: NCI anticancer screen, dose series, 48 h
# [1] = system: HOP-62 NSCLC
# [2] = system: TK-10 renal
# [3] = system: KM20L2 colon
# [4] = system: HT29 colon
# [5] = system: 786-0 renal
# [6] = system: IGROV1 ovarian
# [7] = system: COLO 205 colon
# [8] = system: LOX IMVI melanoma
# [9] = system: SNB-19 CNS
# [10] = system: SW-620 colon
# [11] = system: DMS 273 small cell lung
# [12] = system: NCI-H23 lung
# [13] = system: OVCAR-4 ovarian
# [14] = system: A498 renal
# [15] = system: NCI-H460 lung
# [16] = system: LXFL 529 NSCLC
# [17] = system: OVCAR-5 ovarian
# [18] = system: CCRF-CEM leukemia
# [19] = system: MOLT-4 leukemia
# [20] = system: MALME-3M melanoma
# [21] = system: SR leukemia
# [22] = system: SF-268 CNS
# [23] = system: HCT-116 colon
# [24] = system: ACHN renal
# [25] = system: SNB-78 CNS
# [26] = system: KM12 colon
# [27] = system: OVCAR-8 ovarian
# [28] = system: SK-MEL-28 melanoma
# [29] = system: UACC-257 melanoma
# [30] = system: SK-OV-3 ovarian
# [31] = system: XF 498 CNS
# [32] = system: HOP-18 NSCLC
# [33] = system: HOP-92 NSCLC
# [34] = system: NCI-H522 lung
# [35] = system: SF-295 CNS
# [36] = system: SF-539 CNS
# [37] = system: HCC-2998 colon
# [38] = system: U251 CNS
# [39] = system: RXF 393 renal
# [40] = system: M19-MEL melanoma
# [41] = system: SK-MEL-2 melanoma
# [42] = system: HL-60(TB) leukemia
# [43] = system: RXF-631 renal
# [44] = system: K-562 leukemia
# [45] = system: CAKI-1 renal
# [46] = system: NCI-H226 lung
# [47] = system: EKVX NSCLC
# [48] = system: SN12C renal
# [49] = system: A549 NSCLC
# [50] = system: SK-MEL-5 melanoma
# [51] = system: UO-31 renal
# [52] = system: HCT-15 colon
# [53] = system: DMS 114 small cell lung
# [54] = system: OVCAR-3 ovarian
# [55] = system: DLD-1 colon
# [56] = system: RPMI-8226 leukemia
# [57] = system: M14 melanoma
# [58] = system: UACC-62 melanoma
# [59] = system: SNB-75 CNS
smiles,measurement,setting,value
COC(=O)C12C34C=CC5(CCC6(C=CC1(CC3)O6)C52C(=O)OC)O4 (stereo unspecified),TGI,[1],> 100 µM
same,TGI,[2],> 100 µM
same,TGI,[3],> 100 µM
same,TGI,[4],> 100 µM
same,TGI,[5],> 100 µM
same,TGI,[6],> 100 µM
same,TGI,[7],> 100 µM
same,TGI,[8],> 100 µM
same,TGI,[9],> 100 µM
same,TGI,[10],> 100 µM
same,TGI,[11],> 100 µM
same,TGI,[12],> 100 µM
same,TGI,[13],> 100 µM
same,TGI,[14],> 100 µM
same,TGI,[15],> 100 µM
same,TGI,[16],> 100 µM
same,TGI,[17],> 100 µM
same,TGI,[18],> 100 µM
same,TGI,[19],> 100 µM
same,TGI,[20],> 100 µM
same,TGI,[21],> 100 µM
same,TGI,[22],> 100 µM
same,TGI,[23],> 100 µM
same,TGI,[24],> 100 µM
same,TGI,[25],> 100 µM
same,TGI,[26],> 100 µM
same,TGI,[27],> 100 µM
same,TGI,[28],> 100 µM
same,TGI,[29],> 100 µM
same,TGI,[30],> 100 µM
same,TGI,[31],> 100 µM
same,TGI,[32],> 100 µM
same,TGI,[33],> 100 µM
same,TGI,[34],> 100 µM
same,TGI,[35],> 100 µM
same,TGI,[36],> 100 µM
same,TGI,[37],> 100 µM
same,TGI,[38],> 100 µM
same,TGI,[39],> 100 µM
same,TGI,[40],> 100 µM
same,TGI,[41],> 100 µM
same,TGI,[42],> 100 µM
same,TGI,[43],> 100 µM
same,TGI,[44],> 100 µM
same,TGI,[45],> 100 µM
same,TGI,[46],> 100 µM
same,TGI,[47],> 100 µM
same,TGI,[48],> 100 µM
same,TGI,[49],> 100 µM
C[C@]12CC(C=O)C(=O)C(O)=C1CC[C@@H]1C2CC[C@@]2(C)C1CC[C@]2(C)O (stereo partly specified),TGI,[1],> 100 µM
same,TGI,[2],99.5 µM
same,TGI,[3],52.9 µM
same,TGI,[4],23.5 µM
same,TGI,[5],44.4 µM
same,TGI,[6],47.5 µM
same,TGI,[7],38.3 µM
same,TGI,[8],24.7 µM
same,TGI,[9],63.5 µM
same,TGI,[10],> 100 µM
same,TGI,[11],46.8 µM
same,TGI,[12],46.4 µM
same,TGI,[13],34.8 µM
same,TGI,[14],45.9 µM
same,TGI,[15],87 µM
same,TGI,[16],31.6 µM
same,TGI,[17],32.6 µM
same,TGI,[19],52 µM
same,TGI,[20],22 µM
same,TGI,[50],34.5 µM
same,TGI,[51],51.1 µM
same,TGI,[22],66.1 µM
same,TGI,[23],54.3 µM
same,TGI,[24],51.2 µM
same,TGI,[25],35.8 µM
same,TGI,[52],60.8 µM
same,TGI,[26],74.6 µM
same,TGI,[27],89.9 µM
same,TGI,[53],33.4 µM
same,TGI,[28],68.1 µM
same,TGI,[29],75.5 µM
same,TGI,[30],46.3 µM
same,TGI,[31],33.4 µM
same,TGI,[54],64.7 µM
same,TGI,[33],33.4 µM
same,TGI,[35],66.6 µM
same,TGI,[36],35.1 µM
same,TGI,[37],31.1 µM
same,TGI,[38],44.9 µM
same,TGI,[39],37.3 µM
same,TGI,[40],44.8 µM
same,TGI,[55],34.5 µM
same,TGI,[41],26.6 µM
same,TGI,[42],41.5 µM
same,TGI,[43],72.7 µM
same,TGI,[56],48.8 µM
same,TGI,[44],> 100 µM
same,TGI,[46],39.5 µM
same,TGI,[47],96 µM
same,TGI,[57],35 µM
same,TGI,[58],36.5 µM
same,TGI,[48],42.4 µM
same,TGI,[49],> 100 µM
same,TGI,[59],45.9 µM
CCCCCCCCCCCCCCCCCCOCC(C[N+]1(C)CCC(O)CC1)OCC (stereo unspecified),TGI,[1],16.7 µM
same,TGI,[2],20.5 µM
same,TGI,[4],14.9 µM
same,TGI,[5],19.4 µM
same,TGI,[6],21 µM
same,TGI,[7],14.2 µM
same,TGI,[9],28.3 µM
same,TGI,[10],35.5 µM
same,TGI,[11],4.91 µM
same,TGI,[12],16 µM
same,TGI,[13],18 µM
same,TGI,[14],54.9 µM
same,TGI,[16],11 µM
same,TGI,[18],5.55 µM
same,TGI,[19],10.6 µM
same,TGI,[20],28.8 µM
same,TGI,[21],3.73 µM
same,TGI,[51],27.5 µM
same,TGI,[22],15 µM
same,TGI,[23],27.6 µM
same,TGI,[25],14.7 µM
same,TGI,[27],41.4 µM
same,TGI,[53],12.6 µM
same,TGI,[28],33.5 µM
same,TGI,[29],28 µM
same,TGI,[30],8.22 µM
same,TGI,[31],29 µM
same,TGI,[54],15.4 µM
same,TGI,[33],4.49 µM
same,TGI,[34],31 µM
same,TGI,[35],17.9 µM
same,TGI,[36],32.8 µM
same,TGI,[37],31.7 µM
same,TGI,[40],14.4 µM
same,TGI,[55],44.8 µM
same,TGI,[41],20.9 µM
same,TGI,[42],8.42 µM
same,TGI,[43],21.1 µM
same,TGI,[56],11.5 µM
same,TGI,[44],19.1 µM
same,TGI,[45],21.1 µM
same,TGI,[46],21.4 µM
same,TGI,[47],46.3 µM
same,TGI,[57],23.4 µM
same,TGI,[58],19.7 µM
same,TGI,[48],15.4 µM
same,TGI,[49],32.9 µM
same,TGI,[59],19.2 µM
Nn1c(-c2cccc(Cl)c2)nc2ccccc2c1=O,TGI,[1],> 100 µM
same,TGI,[2],> 100 µM
same,TGI,[3],> 100 µM
same,TGI,[4],> 100 µM
same,TGI,[5],> 100 µM
same,TGI,[6],> 100 µM
same,TGI,[7],> 100 µM
same,TGI,[9],> 100 µM
same,TGI,[10],> 100 µM
same,TGI,[11],> 100 µM
same,TGI,[12],> 100 µM
same,TGI,[13],> 100 µM
same,TGI,[14],> 100 µM
same,TGI,[15],> 100 µM
same,TGI,[16],> 100 µM
same,TGI,[17],> 100 µM
same,TGI,[18],> 100 µM
same,TGI,[19],> 100 µM
same,TGI,[20],> 100 µM
same,TGI,[50],> 100 µM
same,TGI,[51],> 100 µM
same,TGI,[22],> 100 µM
same,TGI,[23],> 100 µM
same,TGI,[24],> 100 µM
same,TGI,[25],> 100 µM
same,TGI,[52],> 100 µM
same,TGI,[26],> 100 µM
same,TGI,[27],> 100 µM
same,TGI,[53],> 100 µM
same,TGI,[28],> 100 µM
same,TGI,[29],> 100 µM
same,TGI,[30],> 100 µM
same,TGI,[31],> 100 µM
same,TGI,[32],> 100 µM
same,TGI,[54],> 100 µM
same,TGI,[33],> 100 µM
same,TGI,[34],> 100 µM
same,TGI,[35],> 100 µM
same,TGI,[36],> 100 µM
same,TGI,[37],> 100 µM
same,TGI,[38],> 100 µM
same,TGI,[55],> 100 µM
same,TGI,[41],> 100 µM
same,TGI,[42],> 100 µM
same,TGI,[43],> 100 µM
same,TGI,[56],> 100 µM
same,TGI,[44],> 100 µM
same,TGI,[45],> 100 µM
same,TGI,[46],> 100 µM
same,TGI,[47],> 100 µM
same,TGI,[57],> 100 µM
same,TGI,[58],> 100 µM
same,TGI,[48],> 100 µM
same,TGI,[49],> 100 µM
same,TGI,[59],> 100 µM
